The subject of assay [1] is Radical scavenging activity. The assay can be described thus: Antioxidant activity assessed as DPPH radical scavenging activity at 10 ug after 20 min. It counts as functional. On the technique in general: The DPPH test is a chemical assay of radical scavenging.
Assay [2] deals with T1, Pancreatic alpha-amylase (Homo sapiens) (UniProt P04746).
T1 sequence (whole entry): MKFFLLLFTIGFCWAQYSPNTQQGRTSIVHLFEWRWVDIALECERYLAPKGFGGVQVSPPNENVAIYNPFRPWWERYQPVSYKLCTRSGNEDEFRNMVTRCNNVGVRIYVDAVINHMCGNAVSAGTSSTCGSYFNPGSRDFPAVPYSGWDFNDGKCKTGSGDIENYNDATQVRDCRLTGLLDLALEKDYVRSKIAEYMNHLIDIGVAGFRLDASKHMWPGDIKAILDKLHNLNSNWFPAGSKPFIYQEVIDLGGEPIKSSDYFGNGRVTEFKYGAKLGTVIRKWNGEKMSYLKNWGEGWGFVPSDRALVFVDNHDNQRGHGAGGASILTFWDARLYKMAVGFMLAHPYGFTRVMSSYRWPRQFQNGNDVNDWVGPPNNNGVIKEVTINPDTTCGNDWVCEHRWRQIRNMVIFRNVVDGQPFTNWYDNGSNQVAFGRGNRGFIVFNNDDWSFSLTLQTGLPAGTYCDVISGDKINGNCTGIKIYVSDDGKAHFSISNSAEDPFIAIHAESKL
The assay can be described thus: Activity of alpha amylase (unknown origin) at 1 mg/ml after 10 min relative to control.

Assay [3] deals with Radical scavenging activity. In words: Antioxidant activity assessed as DPPH radical scavenging activity at 50 ug after 20 min. It counts as functional.
Assay [4] can be described thus: Induction of DNA cleavage at 100 ug after 2 hr by electrophoresis relative to control.
For assay [5], the system named is Radical scavenging activity. In words: Antioxidant activity assessed as DPPH radical scavenging activity at 100 ug after 20 min. The assay is classed as functional.

Calls of active or inactive are those of the source. The calls are words filed in the database; no cut-off is given here.

Turning to `COc1ccc(C2CC(c3ccc(-n4nc(C)n(N)c4=O)cc3)=NN2C(C)=O)cc1` (stereo not given), the Activity in assay [1] stood at 0.6%; in assay [2], 96.5%; in assay [3], 2.28%; in assay [5], 2.4%. Besides, the outcome in assay [4] was Active.
For the compound `CC(=O)N1N=C(c2ccc(-n3nc(C)n(N)c3=O)cc2)CC1c1ccccc1Cl` (stereo not given), the Activity in assay [1] came out at 20%; in assay [2] it was 76.7%; in assay [3], 67.8%; in assay [5], 78.4%. Also, the result in assay [4] was Active.
With `CC(=O)N1N=C(c2ccc(-n3nc(C)n(N)c3=O)cc2)CC1c1ccc(Cl)cc1` (stereo not given), the Activity is 21.7% in assay [1], 126% in assay [2], 69.9% in assay [3] and 81.5% in assay [5]. Moreover, the outcome in assay [4] was Active.
For the compound `COc1ccc(C2CC(c3ccc(-n4nc(C)n(N)c4=O)cc3)=NN2C(C)=O)cc1OC` (stereo not given), the Activity in assay [1] is 0.48%; in assay [2], 64%; in assay [3] it was 1.18%; in assay [5], 1.67%. In assay [4], the result was Active.
Take `CC(=O)N1N=C(c2ccc(-n3nc(C)n(N)c3=O)cc2)CC1c1cccc(Cl)c1` (stereo not given): the Activity in assay [1] was 15.2%; in assay [2], 96.5%; in assay [3], 63.8%; in assay [5], 73.8%. For the same compound, the result in assay [4] was Active.
Taken in the same sequence, the figures for `CC(=O)N1N=C(c2ccc(-n3nc(C)n(N)c3=O)cc2)CC1c1ccc(O)cc1` (stereo not given) were 3.08%, 76.7%, 9.03%, 16.9% and “Active”.
Turning to `CC(=O)N1N=C(c2ccc(-n3nc(C)n(N)c3=O)cc2)CC1c1ccccc1` (stereo not given), the Activity in assay [1] was 24.7%; in assay [2] it was 129%; in assay [3], 30.2%; in assay [5] it was 56.1%. Moreover, the outcome in assay [4] was Active.
As to `CC(=O)N1N=C(c2ccc(-n3nc(C)n(N)c3=O)cc2)CC1c1ccc([N+](=O)[O-])cc1` (stereo not given), the Activity in assay [1] came to 0.4%; in assay [2], 102%; in assay [3] it was 1.09%; in assay [5] it was 1.49%. In assay [4], the outcome was Active.
As for `CC(=O)N1N=C(c2ccc(-n3nc(C)n(N)c3=O)cc2)CC1c1ccc(C)cc1` (stereo not given), the Activity stood at 23% in assay [1], 96.5% in assay [2], 70.1% in assay [3] and 82.5% in assay [5]. Further, the result in assay [4] was Active.

The record behind these values is ChEMBL document CHEMBL3045844, “Synthetic utility of sydnones: synthesis of pyrazolines derivatized with 1,2,4-triazoles as antihyperglymic, antioxidant agents and their DNA cleavage study” (Med Chem Res, 2012).
